What was measured:
HCT116 cells = test: CCK-8 anti-proliferation assay, HCT116; type: cell-based, human
Method: (§1) Tumor cell anti-proliferation activities were determined by cell counting kit-8 (CCK-8) assay.
(§2) MCF-7, A375, and HeLa cells were cultured in DMEM, HCT116 cells were cultured in McCoy's 5A medium, and DU145 and CT26 were cultured in RPMI 1640 with 10% FBS, 1% penicillin-streptomycin solution (10,000 U/mL penicillin and 10,000 μg/mL streptomycin) at 37 °C under 5% CO2. The cells were seeded in 96-well plates (4 × 10^3 cells/well) overnight and then treated with various concentrations (1–50 μmol/L) of the compound. After 48 h, the cell viability was measured by CCK-8 assay. The absorbance of each well was measured using a microplate reader (Multiskan FC, Thermo Fisher Scientific, Massachusetts, USA) at 450 nm wavelength. Assays were performed in triplicate. Compound concentrations that inhibited cell growth by 50% (IC50) were calculated from the dose–response curves of each cell line. Data are mean ± SD values from three independent experiments.

HeLa cells = test: CCK-8 anti-proliferation assay, HeLa; type: cell-based, human
Method: as §1, §2

[1] = Homo sapiens, HCT-116, 48 h, CCK-8, 48 h, mean ± SD, three independent experiments
[2] = Homo sapiens, HeLa, 48 h, CCK-8, 48 h, mean ± SD, three independent experiments
[3] = CCK-8, 48 h, mean ± SD, three independent experiments

Compound	IC50 (HCT116 cells; [1])	IC50 (HeLa cells; [2])	IC50 (HCT116 cells; [3])	IC50 (HeLa cells; [3])	also measured
CCOC(=O)[C@]1(n2cnc3c(SC)ncnc32)CSC[C@H]1O (relative stereo) [21a]	44.1 ± 1.36 µM	31 ± 2.18 µM	–	–	–
CCOC(=O)[C@]1(n2cnc3c(SC)ncnc32)CSC[C@@H]1O (relative stereo) [21b]	32.7 ± 1.17 µM	8.83 ± 0.78 µM	–	–	–
CCOC(=O)[C@]1(n2cnc3c(SCC)ncnc32)CSC[C@H]1O (relative stereo) [22a]	7.56 ± 1.09 µM	5.46 ± 1.02 µM	–	–	–
CCOC(=O)[C@]1(n2cnc3c(SCC)ncnc32)CSC[C@@H]1O (relative stereo) [22b]	2.42 ± 0.82 µM	3.27 ± 0.82 µM	–	–	–
CCOC(=O)[C@]1(n2cnc3c(SC(C)C)ncnc32)CSC[C@H]1O (relative stereo) [23a]	4.85 ± 1.02 µM	8.45 ± 1.23 µM	–	–	–
CCOC(=O)[C@]1(n2cnc3c(SC(C)C)ncnc32)CSC[C@@H]1O (relative stereo) [23b]	4.01 ± 0.88 µM	3.43 ± 0.76 µM	–	–	–
C#CCSc1ncnc2c1ncn2[C@@]1(C(=O)OCC)CSC[C@H]1O (relative stereo) [24a]	1.81 ± 0.12 µM	15.9 ± 2.12 µM	–	–	–
C#CCSc1ncnc2c1ncn2[C@@]1(C(=O)OCC)CSC[C@@H]1O (relative stereo) [24b]	1.66 ± 0.13 µM	14.9 ± 2.01 µM	–	–	–
CCCCSc1ncnc2c1ncn2[C@@]1(C(=O)OCC)CSC[C@H]1O (relative stereo) [25a]	9.07 ± 0.49 µM	9.89 ± 1.02 µM	–	–	–
CCCCSc1ncnc2c1ncn2[C@@]1(C(=O)OCC)CSC[C@@H]1O (relative stereo) [25b]	2.84 ± 0.27 µM	6.32 ± 0.82 µM	–	–	–
CCCCCSc1ncnc2c1ncn2[C@@]1(C(=O)OCC)CSC[C@H]1O (relative stereo) [26a]	11.9 ± 1.32 µM	6.07 ± 0.78 µM	–	–	–
CCCCCSc1ncnc2c1ncn2[C@@]1(C(=O)OCC)CSC[C@@H]1O (relative stereo) [26b]	11.8 ± 1.27 µM	> 50 µM	–	–	–
CCOC(=O)[C@]1(n2cnc3c(SCc4ccccc4)ncnc32)CSC[C@H]1O (relative stereo) [27a]	14.4 ± 1.64 µM	22.3 ± 2.09 µM	–	–	–
CCOC(=O)[C@]1(n2cnc3c(SCc4ccccc4)ncnc32)CSC[C@@H]1O (relative stereo) [27b]	5.65 ± 1.4 µM	23.9 ± 2.38 µM	–	–	–
CCOC(=O)[C@]1(n2cnc3c(Sc4cccc(F)c4)ncnc32)CSC[C@H]1O (relative stereo) [28a]	12.8 ± 1.08 µM	9.47 ± 1.02 µM	–	–	–
CCOC(=O)[C@]1(n2cnc3c(Sc4cccc(F)c4)ncnc32)CSC[C@@H]1O (relative stereo) [28b]	15.7 ± 2 µM	25.8 ± 1.35 µM	–	–	–
CCOC(=O)C1(n2cnc3c(Cl)ncnc32)CSCC1O (single isomer, unassigned) [2a]	–	–	48.9 ± 2.12 µM	> 50 µM	–
CCOC(=O)C1(n2cnc3c(Cl)ncnc32)CSCC1O (single isomer, unassigned) [2b]	–	–	> 50 µM	> 50 µM	–
CCOC(=O)C1(n2cnc3c(Br)ncnc32)CSCC1O (single isomer, unassigned) [3a]	–	–	8.97 ± 1.03 µM	> 50 µM	–
CCOC(=O)C1(n2cnc3c(Br)ncnc32)CSCC1O (single isomer, unassigned) [3b]	–	–	> 50 µM	> 50 µM	–
CCOC(=O)C1(n2cnc3c(N(C)C)ncnc32)CSCC1O (single isomer, unassigned) [4a]	–	–	17.4 ± 1.01 µM	9.81 ± 1.12 µM	–
CCOC(=O)C1(n2cnc3c(N(C)C)ncnc32)CSCC1O (single isomer, unassigned) [4b]	–	–	49.5 ± 2.02 µM	12 ± 1.57 µM	–
CCOC(=O)C1(n2cnc3c(N4CCOCC4)ncnc32)CSCC1O (single isomer, unassigned) [9a]	–	–	> 50 µM	10.8 ± 1.03 µM	–
CCOC(=O)C1(n2cnc3c(N4CCOCC4)ncnc32)CSCC1O (single isomer, unassigned) [9b]	–	–	17.1 ± 1.12 µM	10.2 ± 1.05 µM	–
CCOC(=O)C1(n2cnc3c(N4CCSCC4)ncnc32)CSCC1O (single isomer, unassigned) [10a]	–	–	18.8 ± 1.04 µM	45.8 ± 2.12 µM	–
CCOC(=O)C1(n2cnc3c(N4CCSCC4)ncnc32)CSCC1O (single isomer, unassigned) [10b]	–	–	10.1 ± 1.01 µM	10.2 ± 1.93 µM	–

Compound	IC50 (HCT116 cells; [1])	IC50 (HeLa cells; [2])	IC50 (HCT116 cells; [3])	IC50 (HeLa cells; [3])	also measured
CCOC(=O)C1(n2cnc3c(N4CCC(C)CC4)ncnc32)CSCC1O (single isomer, unassigned) [11a]	–	–	1.44 ± 0.13 µM	21.8 ± 2.42 µM	–
CCOC(=O)C1(n2cnc3c(N4CCC(C)CC4)ncnc32)CSCC1O (single isomer, unassigned) [11b]	–	–	0.91 ± 0.27 µM	23.4 ± 2.76 µM	–
CCOC(=O)C1(n2cnc3c(N4CCC(F)CC4)ncnc32)CSCC1O (single isomer, unassigned) [12a]	–	–	1.64 ± 0.27 µM	44.5 ± 3.12 µM	–
CCOC(=O)C1(n2cnc3c(N4CCC(F)CC4)ncnc32)CSCC1O (single isomer, unassigned) [12b]	–	–	3.92 ± 0.87 µM	40.9 ± 3.08 µM	–
CCOC(=O)C1(n2cnc3c(N4CCC(C(F)(F)F)CC4)ncnc32)CSCC1O (single isomer, unassigned) [13a]	–	–	5.89 ± 1.02 µM	42 ± 2.12 µM	–
CCOC(=O)C1(n2cnc3c(N4CCC(C(F)(F)F)CC4)ncnc32)CSCC1O (single isomer, unassigned) [13b]	–	–	2.37 ± 0.36 µM	38.7 ± 2.09 µM	–
CCOC(=O)C1(n2cnc3c(N4CCC(Cl)CC4)ncnc32)CSCC1O (single isomer, unassigned) [14a]	–	–	15 ± 2.16 µM	12.1 ± 1.32 µM	–
CCOC(=O)C1(n2cnc3c(N4CCC(Cl)CC4)ncnc32)CSCC1O (single isomer, unassigned) [14b]	–	–	18 ± 2.37 µM	14.3 ± 1.58 µM	–
CCOC(=O)C1(n2cnc3c(N4CCC(N5CCOCC5)CC4)ncnc32)CSCC1O (single isomer, unassigned) [15a]	–	–	43.9 ± 2.11 µM	13.7 ± 1.33 µM	–
CCOC(=O)C1(n2cnc3c(N4CCC(N5CCOCC5)CC4)ncnc32)CSCC1O (single isomer, unassigned) [15b]	–	–	32 ± 2.09 µM	7.71 ± 1.02 µM	–
CCOC(=O)C1(n2cnc3c(N4CCC(Cc5ccccc5F)CC4)ncnc32)CSCC1O (single isomer, unassigned) [17a]	–	–	4.4 ± 1.02 µM	17 ± 1.03 µM	–
CCOC(=O)C1(n2cnc3c(N4CCC(Cc5ccccc5F)CC4)ncnc32)CSCC1O (single isomer, unassigned) [17b]	–	–	4.49 ± 1.13 µM	17 ± 1.12 µM	–
CCOC(=O)C1(n2cnc3c(N4CCCCCC4)ncnc32)CSCC1O (single isomer, unassigned) [19a]	–	–	1.19 ± 0.09 µM	22.8 ± 1.22 µM	–
CCOC(=O)C1(n2cnc3c(N4CCCCCC4)ncnc32)CSCC1O (single isomer, unassigned) [19b]	–	–	3.05 ± 0.67 µM	46.1 ± 2.46 µM	–
CCOC(=O)C1(n2cnc3c(N4CCCC4)ncnc32)CSCC1O (single isomer, unassigned) [20a]	–	–	39.1 ± 1.35 µM	11.4 ± 1.42 µM	–
CCOC(=O)C1(n2cnc3c(N4CCCC4)ncnc32)CSCC1O (single isomer, unassigned) [20b]	–	–	22.8 ± 1.04 µM	12.2 ± 1.28 µM	–
CCOC(=O)C1(n2cnc3c(N4CCCCC4)nc(N)nc32)CSCC1O (single isomer, unassigned) [32a]	–	–	0.72 ± 0.08 µM	5.35 ± 1.05 µM	–
CCOC(=O)C1(n2cnc3c(N4CCCCC4)nc(N)nc32)CSCC1O (single isomer, unassigned) [32b]	–	–	0.81 ± 0.12 µM	5.37 ± 1.09 µM	–
CCOC(=O)C1(n2cnc3c(N4CCCCC4)nc(Cl)nc32)CSCC1O (single isomer, unassigned) [34a]	–	–	7.2 ± 0.39 µM	4.86 ± 0.65 µM	–
CCOC(=O)C1(n2cnc3c(N4CCCCC4)nc(Cl)nc32)CSCC1O (single isomer, unassigned) [34b]	–	–	4.3 ± 0.51 µM	4.05 ± 0.37 µM	–
CCCSc1nc(N)nc2c1ncn2C1(C(=O)OCC)CSCC1O (single isomer, unassigned) [35a]	–	–	0.73 ± 0.11 µM	9.44 ± 1.27 µM	–
CCCSc1nc(N)nc2c1ncn2C1(C(=O)OCC)CSCC1O (single isomer, unassigned) [35b]	–	–	0.65 ± 0.21 µM	8.49 ± 1.02 µM	–
CCCSc1nc(Cl)nc2c1ncn2C1(C(=O)OCC)CSCC1O (single isomer, unassigned) [37a]	–	–	3.81 ± 0.13 µM	1.58 ± 0.36 µM	–
CCCSc1nc(Cl)nc2c1ncn2C1(C(=O)OCC)CSCC1O (single isomer, unassigned) [37b]	–	–	2.7 ± 0.04 µM	5.98 ± 1.25 µM	–
CCOC(=O)C1(n2cnc3c(Cl)nc(N)nc32)CSCC1O (single isomer, unassigned) [38a]	–	–	–	–	IC50 (HCT116 cells; Table S3, CCK-8, mean ± SD): 30.5 ± 1.42 µM; IC50 (HeLa cells; Table S3, CCK-8, mean ± SD): 25.6 ± 2.13 µM
CCOC(=O)C1(n2cnc3c(Cl)nc(N)nc32)CSCC1O (single isomer, unassigned) [38b]	–	–	–	–	IC50 (HCT116 cells; Table S3, CCK-8, mean ± SD): 10.6 ± 1.02 µM; IC50 (HeLa cells; Table S3, CCK-8, mean ± SD): 22.5 ± 2.17 µM

Now from value to molecule, other results behind:

IC50 (HCT116 cells; [1])	IC50 (HeLa cells; [2])	Compound	IC50 (HCT116 cells; [3])	IC50 (HeLa cells; [3])	also measured
7.6 ± 1.22 µM	21.2 ± 2.37 µM	CCOC(=O)[C@]1(n2cnc3c(Sc4ccc(C(C)(C)C)cc4)ncnc32)CSC[C@H]1O (relative stereo) [29a]	–	–	–
6.78 ± 1.22 µM	15.1 ± 2.08 µM	CCOC(=O)[C@]1(n2cnc3c(Sc4ccc(C(C)(C)C)cc4)ncnc32)CSC[C@@H]1O (relative stereo) [29b]	–	–	–
19.1 ± 1.37 µM	10.8 ± 1.07 µM	CCOC(=O)[C@]1(n2cnc3c(SCCCF)ncnc32)CSC[C@H]1O (relative stereo) [30a]	–	–	–
10.9 ± 1.01 µM	12.1 ± 1.12 µM	CCOC(=O)[C@]1(n2cnc3c(SCCCF)ncnc32)CSC[C@@H]1O (relative stereo) [30b]	–	–	–
> 50 µM	> 50 µM	CCOC(=O)[C@]1(n2cnc3c(SCCCCl)ncnc32)CSC[C@H]1O (relative stereo) [31a]	–	–	–
> 50 µM	> 50 µM	CCOC(=O)[C@]1(n2cnc3c(SCCCCl)ncnc32)CSC[C@@H]1O (relative stereo) [31b]	–	–	–

From publication PMC12278645, “Design, synthesis, and antitumor activity of novel thioheterocyclic nucleoside derivatives by suppressing the c-MYC pathway” (Acta Pharmaceutica Sinica. B, 2025)
